# Values quoted from earlier work in patent publication US8653135B1, “Alternating sympathomimetic therapy for the treatment of respiratory aliments” (Sovereign Pharmaceuticals, LLC, priority 2007, dated 2014).
# Settings: when given in adequate dosages
structure (smiles),measurement,value
"CNC[C@H](O)c1cccc(O)c1 [Phenylephrine, phenylephrine]",effect on heart rate,slows the heart rate
